# Assay results taken from patent US10064909B2, “Compositions and methods for chronic use of a weight-gaining compound” (priority 2015, dated 2018).
# Where “and” joins values, the source holds several entries; their conditions need not be identical. Equal values may be shown once. Entries after “also recorded” stand apart in the source; their conditions may differ.
# What was measured:
# [1] = Safety of capromorelin administered daily to Beagle dogs for one year; format: in vivo; settings: for high dose relative to proposed clinical dose for dogs (safety margin): 52.4 mg/kg vs proposed clinical dose; for high dose relative to proposed clinical dose for dogs (safety margin) / tolerability / toxicity: L-tartrate; for tolerability / toxicity: oral gavage once daily, doses up to 52.4 mg/kg
# Procedure: (§1) This study evaluated the safety of capromorelin in dogs. Thirty-two Beagle dogs were randomly assigned to four groups (n=4/sex/group) and received 0 mg/kg, 0.39 mg/kg, 9.2 mg/kg, or 52.4 mg/kg capromorelin (with the dose calculated per the tartrate salt) once daily by oral gavage for 12 consecutive months. Safety parameters were evaluated including clinical signs, food consumption, bodyweight, clinical pathology, urinalysis, ophthalmology, electrocardiogram and vital signs. Capromorelin, GH and IGF-1 were measured in plasma samples collected at various time points during the study. At the end of the dosing period, dogs were humanely euthanized and necropsied. Selected organs were weighed and tissue samples collected and processed for microscopic examination.
# [2] = Pilot clinical field study in cats with CKD (Example 11); format: in vivo; settings: for mean bodyweight change (±SEM): 2 mg/kg oral once daily
# Procedure: This placebo controlled, masked non-GCP study was to confirm the safety and effectiveness (weight gain) of AT-002 (capromorelin) at a dose of 2 mg/kg administered once daily for 90 days in cats with CKD and a history of losing weight.
# A total of 42 cats were screened at 7 veterinary clinics. Of these 42 cats, 1 was a screen failure, resulting in 41 cats being enrolled and randomized to 1 of 2 treatments, capromorelin oral solution (AT-002) or placebo (CP). Eligible study candidates included cats that presented to the veterinary clinic with a diagnosis of CKD (IRIS stages II, III or IV) and a documented decrease in bodyweight over the previous 6 months. Test articles were provided as flavored oral solutions and were administered orally once daily beginning on Day 0 for 90±3 days, AT-002 at a dose rate of 2 mg/kg and CP at the equivalent dose volume to AT-002. The Investigator, study staff and cat Owners were masked to treatment. Cats were re-evaluated at the clinic on Day 14±1, Day 30±2, Day 60±3 and Day 90±3.
# (§2) The key variable for the determination of effectiveness was bodyweight. Other effectiveness variables measured included body condition score, muscle condition score, quality of life assessments (unvalidated) and owner appetite assessments (unvalidated). Safety was assessed by physical examinations, clinical pathology testing (hematology and serum chemistry), urinalysis, serum IGF-1 levels and adverse event monitoring.
# [3] = Cat dose titration laboratory study (21 days): food consumption and bodyweight; format: in vivo; settings: cats; for Mean % Change (±SD) in Food Consumption Over 21 Days: Day 1-21 vs Days -3 to -1, listed as AT-002, L-tartrate; for Mean % Change (±SD) in Bodyweight Over 21 Days: Day 1 to Day 22
# Procedure: This study tested the effectiveness of an oral formulation of AT-002 in laboratory cats and to select a dose that would cause increased food intake and weight gain. This study investigated the effects of a capromorelin oral solution in cats dosed at 1 mg/kg, 2 mg/kg or 3 mg/kg compared to placebo (n=8/group) for 21 days. Food consumption was measured each day from Day −10 through Day 21. For each cat, baseline food consumption was calculated as the average of Days −3, −2 and −1. The percent change from baseline to treatment period was calculated as 100× (treatment period minus baseline)/baseline. Bodyweight was measured on Day 1, Day 8, Day 15 and Day 22. Baseline bodyweight was defined as the value collected on Day 1 (prior to treatment).
# IGF-1 [4] = assay: Pilot clinical field study: IGF-1 serum levels; format: in vivo, cats
# Procedure: as §2
# IGF-1 [5] = assay: Capromorelin efficacy in cats for 21 days: serum IGF-1 levels; format: in vivo
# Procedure: Thirty-two cats (16 neutered males, 16 females) were divided into 4 treatment groups including 4 animals of each sex per group. The cats were acclimated to the study environment for 10 days prior to study start. All cats were orally dosed with placebo (Group 1) or capromorelin (30 mg/ml oral solution, Formulation 9 as described above) at 1 mg/kg (Group 2), 2 mg/kg (Group 3) or 3 mg/kg (Group 4), for 21 days, with dosing starting on Day 1. Physical examinations were performed on Day −10 and general health observations made daily. Body weights were evaluated on Days −10, −8, −1, 1, 8, 15 and 22 days. Cats were fed about 1 hour after dosing. Commercial dry cat food (300 g) was provided for 5 hours and then removed and the amount of food consumed (g) calculated per cat. On Days 1, 14 and 21, blood samples were collected prior to daily dose administration and at 8 hours post-dose and serum processed for measurement of IGF-1 levels.
# IGF-1 [6] = assay: One-year dog safety study: IGF-1 plasma levels; format: in vivo, Beagle dogs; settings: dogs, following treatment, sustained over time to Day 351
# Procedure: as §1
# [7] = 2 mg/kg, 90 days, PPP1, not statistically significant vs placebo
# [8] = capromorelin group, Day 0 (baseline)
compound,measurement,setting,value
"CN1N=C2CCN(C(=O)[C@@H](COCc3ccccc3)NC(=O)C(C)(C)N)C[C@@]2(Cc2ccccc2)C1=O.O=C(O)C(O)C(O)C(=O)O [capromorelin, N-[(2R)-1-[(3aR)-2-methyl-3-oxo-3a-(phenylmethyl)-6,7-dihydro-4H-pyrazolo[4,3-c]pyridin-5-yl]-1-oxo-3-(phenylmethoxy)propan-2-yl]-2-amino-2-methylpropanamide L-tartrate]","pressure rate quotient (PRQ) interval, electrocardiogram","[1]; 52.4 mg/kg and 9.2 mg/kg groups, 1 to 2 hours following dosing",slight increases
same,absolute liver weights,[1]; 52.4 mg/kg dose,Increased
same,"red blood cells, hemoglobin and hematocrit",[1]; 52.4 mg/kg group,slight deceases
same,"cholesterol, HDL and alkaline phosphatase serum levels",[1]; 52.4 mg/kg group compared to placebo,statistically significantly increased
same,high dose relative to proposed clinical dose for dogs (safety margin),[1],about 17.5 times
same,high dose relative to proposed clinical dose for dogs (safety margin),[1]; listed as Capromorelin,approximately 17.5 times
same,hepatocellular cytoplasmic vacuolation,[1]; all capromorelin treated groups,slight increase
same,clinical signs related to capromorelin,"[1]; dogs, 12 months, noted sporadically",salivation and loose stool
same,capromorelin plasma levels: accumulation,"[1]; dogs, Days 90, 181 and 349",no accumulation of drug
same,reddening/swollen paws,"[1]; dogs, higher dose treatments",increased incidence
same,tolerability / toxicity,"[1]; dogs, 12 months",well-tolerated; also recorded: favorable toxicology
same,tolerability / toxicity,"[1]; dogs, 12 months, listed as Capromorelin",minimal toxicity
same,"effects on food consumption, bodyweight, ophthalmic exams, vital signs or gross pathology","[1]; dogs, up to 52.4 mg/kg daily, 12 months",no negative effects
same,mean body condition score (scale of 1 to 9),[2]; [7],increased slightly
same,mean muscle condition score (scale of 0 to 3),[2]; [7],increased
same,"% Success, success defined as greater than 0% gain","[2]; 2 mg/kg, Day 14, PPP2",86.7%
same,"% Success, success defined as maintenance or gain","[2]; 2 mg/kg, Day 14, PPP2",86.7%
same,"Body weight successes per group, success defined as greater than 0% gain","[2]; 2 mg/kg, Day 14, PPP2",13/15
same,"Bodyweight successes per group, success defined as maintenance or gain","[2]; 2 mg/kg, Day 14, PPP2",13/15
same,"% Success, success defined as greater than 0% gain","[2]; 2 mg/kg, Day 30, PPP2",86.7%
same,"% Success, success defined as maintenance or gain","[2]; 2 mg/kg, Day 30, PPP2",93.3%
same,"Body weight successes per group, success defined as greater than 0% gain","[2]; 2 mg/kg, Day 30, PPP2",13/15
same,"Bodyweight successes per group, success defined as maintenance or gain","[2]; 2 mg/kg, Day 30, PPP2",14/15
same,"% Success, success defined as greater than 0% gain","[2]; 2 mg/kg, Day 60, PPP2",66.7%
same,"% Success, success defined as maintenance or gain","[2]; 2 mg/kg, Day 60, PPP2",80.0%
same,"Body weight successes per group, success defined as greater than 0% gain","[2]; 2 mg/kg, Day 60, PPP2",10/15
same,"Bodyweight successes per group, success defined as maintenance or gain","[2]; 2 mg/kg, Day 60, PPP2",12/15
same,change in mean descriptive quality of life monthly score (±SEM) from Day 0,"[2]; 2 mg/kg, Day 90",0.00±0.11
same,"% Success, success defined as greater than 0% gain","[2]; 2 mg/kg, Day 90, PPP2",73.3%
same,"% Success, success defined as maintenance or gain","[2]; 2 mg/kg, Day 90, PPP2",80.0%
same,"Body weight successes per group, success defined as greater than 0% gain","[2]; 2 mg/kg, Day 90, PPP2",11/15
same,"Bodyweight successes per group, success defined as maintenance or gain","[2]; 2 mg/kg, Day 90, PPP2",12/15
same,mean descriptive owner appetite assessment monthly scores,"[2]; 2 mg/kg, compared to placebo, Days 30, 60, 90, PPP1",did not change significantly
same,"mean descriptive quality of life monthly score (±SEM), scale of 1 to 5",[2]; [8],3.85±0.19
same,tolerability,"[2]; cats with CKD, 2 mg/kg once daily, 90 days",well-tolerated
same,mean bodyweight change (±SEM),"[2]; cats with CKD, Day 14, n = 13, PPP1",2.93% ± 0.70%
same,mean bodyweight change (±SEM),"[2]; cats with CKD, Day 30, n = 13, PPP1, L-tartrate, 2 mg/kg",3.86%±0.85%
same,mean bodyweight change (±SEM),"[2]; cats with CKD, Day 30, n = 13, PPP1, listed as Capromorelin, L-tartrate, 2 mg/kg",3.86% ± 0.85%
same,mean bodyweight change (±SEM),"[2]; cats with CKD, Day 60, n = 13, PPP1, L-tartrate, 2 mg/kg",4.06%±1.42%
same,mean bodyweight change (±SEM),"[2]; cats with CKD, Day 60, n = 13, PPP1, listed as Capromorelin, L-tartrate, 2 mg/kg",4.06% ± 1.42%
same,mean bodyweight change (±SEM),"[2]; cats with CKD, Day 90, n = 13, PPP1, L-tartrate, 2 mg/kg",3.59%±1.59%
same,mean bodyweight change (±SEM),"[2]; cats with CKD, Day 90, n = 13, PPP1, listed as Capromorelin, L-tartrate, 2 mg/kg",3.59% ± 1.59%
same,Mean % Change (±SD) in Food Consumption Over 21 Days,"[3]; 1 mg/kg, 1 mg/kg",25.3% and 25.32 ± 16.70%
same,Mean % Change (±SD) in Bodyweight Over 21 Days,[3]; 1 mg/kg,5.41 ± 4.11%
same,Mean % Change (±SD) in Food Consumption Over 21 Days,"[3]; 2 mg/kg, 2 mg/kg",45.7% and 45.67 ± 24.39%
same,Mean % Change (±SD) in Bodyweight Over 21 Days,[3]; 2 mg/kg,6.61 ± 5.05%
same,Mean % Change (±SD) in Food Consumption Over 21 Days,"[3]; 3 mg/kg, 3 mg/kg",29.6% and 29.59 ± 13.65%
same,Mean % Change (±SD) in Bodyweight Over 21 Days,[3]; 3 mg/kg,3.92 ± 5.15%
same,"IGF-1 Serum Levels, Mean Levels (SEM)","IGF-1 [4]; 2 mg/kg once daily, Day 30",855.60 ± 72.74 ng/mL
same,"IGF-1 Serum Levels, Change over baseline (Day 0)","IGF-1 [4]; 2 mg/kg once daily, Day 30, L-tartrate",274.60 ± 49.06 ng/mL
same,"IGF-1 Serum Levels, Change over baseline (Day 0)","IGF-1 [4]; 2 mg/kg once daily, Day 60",195.64 ± 40.70 ng/mL
same,"IGF-1 Serum Levels, Mean Levels (SEM)","IGF-1 [4]; 2 mg/kg once daily, Day 60",752.55 ± 56.89 ng/mL
same,"IGF-1 Serum Levels, Change over baseline (Day 0)","IGF-1 [4]; 2 mg/kg once daily, Day 90",163.82 ± 52.74 ng/mL
same,"IGF-1 Serum Levels, Mean Levels (SEM)","IGF-1 [4]; 2 mg/kg once daily, Day 90",720.73 ± 65.70 ng/mL
same,"IGF-1 Serum Levels, Mean Levels (SEM)",IGF-1 [4]; [8],556.91 ± 64.30 ng/mL
same,group mean serum IGF-1 increase from 0 to 8 hours post-dose,"IGF-1 [5]; 1 mg/kg (Group 2), Day 1",46.69%
same,group mean serum IGF-1 increase from 0 to 8 hours post-dose,"IGF-1 [5]; 1 mg/kg (Group 2), Day 14",17.27%
same,group mean serum IGF-1 increase from 0 to 8 hours post-dose,"IGF-1 [5]; 1 mg/kg (Group 2), Day 21",9.81%
same,group mean serum IGF-1 increase from 0 to 8 hours post-dose,"IGF-1 [5]; 2 mg/kg (Group 3), Day 1",29.38%
same,group mean serum IGF-1 increase from 0 to 8 hours post-dose,"IGF-1 [5]; 2 mg/kg (Group 3), Day 14",9.00%
same,group mean serum IGF-1 increase from 0 to 8 hours post-dose,"IGF-1 [5]; 2 mg/kg (Group 3), Day 21",2.68%
same,group mean serum IGF-1 increase from 0 to 8 hours post-dose,"IGF-1 [5]; 3 mg/kg (Group 4), Day 1",36.77%
same,group mean serum IGF-1 increase from 0 to 8 hours post-dose,"IGF-1 [5]; 3 mg/kg (Group 4), Day 14",18.56%
same,group mean serum IGF-1 increase from 0 to 8 hours post-dose,"IGF-1 [5]; 3 mg/kg (Group 4), Day 21",5.17%
same,IGF-1 plasma levels,IGF-1 [6],increased
